{
  "source": "patent EP1909102A1",
  "about": "“Method for subgroup analysis in subjects having or being suspected of having inflammatory disease, use of anti-p38mapk antibodies, kits and their use” (c-a-i-r biosciences GmbH, priority 2006, dated 2008)",
  "key": {"[1]": {"target": "p38MAPKα (Homo sapiens, UniProt Q16539)", "sequence (Q16539 whole entry)": "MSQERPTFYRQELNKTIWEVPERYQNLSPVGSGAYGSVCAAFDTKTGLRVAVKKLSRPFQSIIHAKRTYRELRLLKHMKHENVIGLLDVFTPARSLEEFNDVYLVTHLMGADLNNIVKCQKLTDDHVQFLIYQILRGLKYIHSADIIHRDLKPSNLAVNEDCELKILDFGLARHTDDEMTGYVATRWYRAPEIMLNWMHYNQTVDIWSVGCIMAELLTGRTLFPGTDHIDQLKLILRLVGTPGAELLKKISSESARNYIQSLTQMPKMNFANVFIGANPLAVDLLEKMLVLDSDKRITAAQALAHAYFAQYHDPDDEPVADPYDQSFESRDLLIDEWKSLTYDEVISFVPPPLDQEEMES", "conditions": "read-out: IC50 for p38MAPKα; disclosed in WO 2004/110990; cited from earlier work"}, "[2]": {"system": "patients with moderate to severe rheumatoid arthritis", "assay": "VeRA trial of p38MAPK inhibitor in rheumatoid arthritis patients", "assay_type": "in vivo", "conditions": "according to a Monte Carlo simulation of the distribution of the effects", "procedure": "It has been claimed that p38MAPK inhibitors were of benefit in treating a large variety of disorders. […] In the VeRA trial, which was conducted to evaluate treatment effects in terms of characteristic manifestations of the disease such as tender joints, swollen joints, morning stiffness and disease activity in a cohort of 315 patients with moderate to severe rheumatoid arthritis, approximately 40 % of patients were responsive to treatment with the p38MAPK inhibitor VX-702, compared to a placebo effect of about 30 %, arguing for a biochemical net response rate of about 28 % according to a Monte Carlo simulation of the distribution of the effects. So far, no explanation for this evident dichotomy between responders and non-responders has been proposed yet."}, "[3]": {"system": "patients with moderate to severe rheumatoid arthritis", "conditions": "VeRA trial, cohort of 315 patients with moderate to severe rheumatoid arthritis; placebo effect about 30 %; cited from earlier work"}},
  "data": [
    {"smiles": "Fc1ccc(-c2nc3occn3c2-c2ccnc(NC3CC3)n2)cc1", "note": "[4-(4-fluorophenyl)-5-(2-[cyclopropyl-amino]-pyrimidyl-4-yl)-imidazooxazole]", "values": [
      {"measurement": "IC50", "setting": "[1]", "value": 440, "unit": "pM"}
    ]},
    {"smiles": "NC(=O)c1ccc(N(C(N)=O)c2c(F)cccc2F)nc1-c1ccc(F)cc1F", "note": "[VX-702]", "values": [
      {"measurement": "biochemical net response rate", "setting": "[2]", "value": "about 28%"},
      {"measurement": "patients responsive to treatment", "setting": "[3]", "value": "approximately 40%"}
    ]}
  ]
}
